{"source": "ChEMBL document CHEMBL1201862", "about": "“PubChem BioAssay data set” (2004)", "key": {"[1]": {"target": "Melanin-concentrating hormone receptor 1 (Homo sapiens, UniProt Q99705)", "sequence (Q99705 whole entry)": "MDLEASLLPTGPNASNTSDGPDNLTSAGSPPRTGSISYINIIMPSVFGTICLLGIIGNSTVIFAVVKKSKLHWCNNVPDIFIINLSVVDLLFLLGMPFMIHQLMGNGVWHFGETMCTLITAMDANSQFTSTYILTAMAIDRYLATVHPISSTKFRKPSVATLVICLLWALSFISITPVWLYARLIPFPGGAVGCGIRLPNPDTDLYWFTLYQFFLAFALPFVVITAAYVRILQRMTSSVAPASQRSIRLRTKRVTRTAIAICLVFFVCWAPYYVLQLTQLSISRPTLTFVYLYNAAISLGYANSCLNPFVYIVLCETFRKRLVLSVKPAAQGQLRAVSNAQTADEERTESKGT", "test": "Fluorescence-based counterscreen for antagonists of the G-protein coupled receptor 7 (GPR7): cell-based high throughput dose response assay to identify antagonists of the melanin-concentrating hormone receptor 1 (MCHR1).", "format": "functional"}, "[2]": {"target": "Neuropeptides B/W receptor type 1 (Homo sapiens, UniProt P48145)", "sequence (P48145 whole entry)": "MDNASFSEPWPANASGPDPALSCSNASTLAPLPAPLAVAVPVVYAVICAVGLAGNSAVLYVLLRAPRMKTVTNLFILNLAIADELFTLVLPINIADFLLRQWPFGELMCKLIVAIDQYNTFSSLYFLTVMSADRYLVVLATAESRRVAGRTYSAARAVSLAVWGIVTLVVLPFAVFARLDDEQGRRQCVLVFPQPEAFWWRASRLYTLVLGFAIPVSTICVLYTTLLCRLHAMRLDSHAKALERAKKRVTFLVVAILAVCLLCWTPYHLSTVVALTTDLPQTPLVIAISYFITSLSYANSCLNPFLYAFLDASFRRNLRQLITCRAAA", "test": "Fluorescence-based dose response cell-based high throughput screening assay to identify antagonists of the G-protein coupled receptor 7 (GPR7). [Related pubchem assays: 1952 (Screening assay (GPR7 antagonists).), 1880 (Summary AID.)]", "format": "functional"}, "[3]": {"target": "T1, Nucleotide-binding oligomerization domain-containing protein 1 (Homo sapiens, UniProt Q9Y239)", "T1 sequence (Q9Y239 whole entry)": "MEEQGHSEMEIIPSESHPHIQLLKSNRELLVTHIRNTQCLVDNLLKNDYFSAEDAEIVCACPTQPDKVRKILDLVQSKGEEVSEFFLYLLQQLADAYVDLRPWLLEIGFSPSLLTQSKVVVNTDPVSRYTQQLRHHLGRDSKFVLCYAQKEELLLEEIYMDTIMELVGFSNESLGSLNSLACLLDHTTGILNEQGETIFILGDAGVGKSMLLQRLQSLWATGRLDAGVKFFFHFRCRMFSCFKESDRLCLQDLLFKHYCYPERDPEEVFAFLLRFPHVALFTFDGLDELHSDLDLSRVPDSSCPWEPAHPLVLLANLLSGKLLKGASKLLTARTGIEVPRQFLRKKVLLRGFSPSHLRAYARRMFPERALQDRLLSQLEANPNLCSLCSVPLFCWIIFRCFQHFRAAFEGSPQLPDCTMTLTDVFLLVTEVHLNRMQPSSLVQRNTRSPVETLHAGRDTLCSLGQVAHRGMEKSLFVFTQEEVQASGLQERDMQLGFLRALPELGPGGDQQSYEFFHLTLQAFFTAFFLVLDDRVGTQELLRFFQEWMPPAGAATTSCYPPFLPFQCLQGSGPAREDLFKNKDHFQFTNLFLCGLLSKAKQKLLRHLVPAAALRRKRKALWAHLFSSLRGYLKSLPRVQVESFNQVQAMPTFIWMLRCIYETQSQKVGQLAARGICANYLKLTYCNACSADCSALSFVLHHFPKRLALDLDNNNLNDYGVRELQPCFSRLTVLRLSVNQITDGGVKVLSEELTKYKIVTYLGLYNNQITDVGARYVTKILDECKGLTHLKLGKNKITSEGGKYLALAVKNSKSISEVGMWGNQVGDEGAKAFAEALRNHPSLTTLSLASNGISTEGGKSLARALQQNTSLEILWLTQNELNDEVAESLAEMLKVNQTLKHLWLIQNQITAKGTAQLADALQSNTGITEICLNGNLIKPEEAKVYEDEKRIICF", "test": "NOD1 signaling inhibitors, SAR follow-up, revised (AID 2333)", "format": "functional"}, "[4]": {"target": "T2, Heat shock 70 kDa protein 1A (Homo sapiens, UniProt P0DMV8)", "T2 sequence (P0DMV8 whole entry)": "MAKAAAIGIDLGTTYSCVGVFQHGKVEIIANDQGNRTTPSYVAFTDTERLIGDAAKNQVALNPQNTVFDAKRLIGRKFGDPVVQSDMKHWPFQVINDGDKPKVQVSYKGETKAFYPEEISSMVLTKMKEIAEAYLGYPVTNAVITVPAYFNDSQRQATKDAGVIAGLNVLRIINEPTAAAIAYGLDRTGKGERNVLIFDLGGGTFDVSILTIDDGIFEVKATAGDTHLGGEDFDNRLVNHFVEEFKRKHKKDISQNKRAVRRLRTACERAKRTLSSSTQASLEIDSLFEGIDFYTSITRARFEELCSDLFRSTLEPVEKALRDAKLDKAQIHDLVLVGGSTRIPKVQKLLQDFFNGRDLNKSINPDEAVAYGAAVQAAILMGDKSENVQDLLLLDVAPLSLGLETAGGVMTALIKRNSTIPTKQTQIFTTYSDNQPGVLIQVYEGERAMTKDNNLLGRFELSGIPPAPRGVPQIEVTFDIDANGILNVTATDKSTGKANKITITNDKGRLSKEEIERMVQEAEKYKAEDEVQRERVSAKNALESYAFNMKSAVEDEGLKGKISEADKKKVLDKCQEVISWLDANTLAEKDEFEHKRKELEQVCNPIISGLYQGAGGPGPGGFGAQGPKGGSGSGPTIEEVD", "test": "Hsp70 inhibitors, biochemical, TR-FRET (AID 786)"}, "[5]": {"target": "Nucleotide-binding oligomerization domain-containing protein 2 (Homo sapiens, UniProt Q9HC29)", "sequence (Q9HC29 whole entry, the tested form may be a part)": "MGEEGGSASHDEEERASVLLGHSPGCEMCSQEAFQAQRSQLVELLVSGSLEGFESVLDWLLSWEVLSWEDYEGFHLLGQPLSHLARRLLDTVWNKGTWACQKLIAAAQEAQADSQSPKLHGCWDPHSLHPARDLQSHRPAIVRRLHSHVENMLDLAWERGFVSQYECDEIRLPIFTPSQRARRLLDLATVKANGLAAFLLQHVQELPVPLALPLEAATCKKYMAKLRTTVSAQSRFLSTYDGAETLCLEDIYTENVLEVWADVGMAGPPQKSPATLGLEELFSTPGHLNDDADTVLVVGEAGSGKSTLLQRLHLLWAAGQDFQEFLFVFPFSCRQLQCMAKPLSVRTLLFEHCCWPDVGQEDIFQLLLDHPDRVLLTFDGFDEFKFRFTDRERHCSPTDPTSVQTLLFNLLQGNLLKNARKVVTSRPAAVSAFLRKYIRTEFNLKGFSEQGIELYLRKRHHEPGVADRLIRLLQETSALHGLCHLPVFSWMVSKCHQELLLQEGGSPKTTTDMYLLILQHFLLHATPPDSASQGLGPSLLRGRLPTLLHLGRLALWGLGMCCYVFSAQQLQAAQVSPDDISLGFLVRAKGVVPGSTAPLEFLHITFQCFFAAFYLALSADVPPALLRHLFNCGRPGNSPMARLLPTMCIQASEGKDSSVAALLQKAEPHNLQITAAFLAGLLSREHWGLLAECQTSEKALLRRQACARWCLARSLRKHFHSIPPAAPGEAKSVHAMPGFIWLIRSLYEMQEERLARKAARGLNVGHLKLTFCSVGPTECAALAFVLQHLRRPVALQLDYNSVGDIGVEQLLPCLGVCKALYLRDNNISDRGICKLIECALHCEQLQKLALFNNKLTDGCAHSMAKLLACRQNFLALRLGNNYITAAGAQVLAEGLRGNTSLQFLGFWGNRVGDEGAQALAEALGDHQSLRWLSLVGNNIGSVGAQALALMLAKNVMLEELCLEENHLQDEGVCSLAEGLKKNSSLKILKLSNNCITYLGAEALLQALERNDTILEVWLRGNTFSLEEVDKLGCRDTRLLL", "test": "NOD2 signaling inhibitors, cell-based, luminescence, uHTS, HEK293 (AID 1566)", "format": "functional"}, "HEK293 [6]": {"system": "HEK293", "test": "cells", "format": "functional, cell-based", "conditions": "Homo sapiens"}, "[7]": {"target": "T2, Heat shock 70 kDa protein 1A", "test": "Hsp70 inhibitors, probe displacement, primary screen, biochemical, fluorescence polarization (AID 583)"}, "HEK293 [8]": {"system": "HEK293", "test": "NOD2 signaling inhibitors in MDP-stimulated cells, cell-based, uHTS, luminescence (AID 2001)", "format": "functional", "conditions": "Homo sapiens"}, "Tumor necrosis factor": {"target": "Tumor necrosis factor (Homo sapiens, UniProt P01375)", "sequence (P01375 whole entry)": "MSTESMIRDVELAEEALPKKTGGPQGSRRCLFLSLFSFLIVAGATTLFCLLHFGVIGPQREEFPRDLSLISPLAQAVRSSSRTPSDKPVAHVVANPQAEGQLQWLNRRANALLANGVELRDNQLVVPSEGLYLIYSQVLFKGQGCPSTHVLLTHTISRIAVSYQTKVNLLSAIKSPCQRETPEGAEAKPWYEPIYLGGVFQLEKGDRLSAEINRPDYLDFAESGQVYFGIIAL", "test": "TNFa-triggered NF-kB activation inhibitors, SAR follow-up, cell-based, revised (AID 2337)", "format": "functional"}, "HEK293 [9]": {"system": "HEK293", "test": "cells", "conditions": "Homo sapiens"}, "HEK293 [10]": {"system": "HEK293", "test": "NOD1 signaling inhibitors, primary screen, cell-based, luminescence, uHTS (AID 1578)", "format": "functional", "conditions": "Homo sapiens"}, "[11]": {"test": "NIH-3T3 fibroblast cytotoxicity, dose response, cytotoxicity control, cell-based, fluorescence, Alamar Blue, secondary assay (AID 2327);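 further: NIH-3T3 mouse fibroblasts cultured with fluconazole at 8 µg/mL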", "format": "functional"}, "HEK293 [12]": {"system": "HEK293", "test": "cells", "format": "functional, cell-based", "conditions": "Homo sapiens", "remark": "listed apart in the source"}, "[13]": {"test": "C. albicans growth with fluconazole, confirmation, fluorescence, retest (AID 2467)", "format": "functional, cell-based"}, "HEK293 [14]": {"system": "HEK293", "test": "cells", "format": "functional, cell-based", "conditions": "Homo sapiens", "remark": "listed apart in the source"}, "Streptococcus": {"system": "Streptococcus", "test": "Group A Streptococcus viability loss, dose response, counter-screen for streptokinase expression inhibitor project, luminescence, BacTiterGlo (AID 1915);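 further: potency for reduction of bacterial viability or growth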", "format": "functional, organism-based"}, "Vero": {"system": "Vero", "test": "Vero cell cytotoxicity, cytotoxicity control for flavivirus capping enzyme inhibitors (AID 588742)", "format": "functional", "conditions": "Chlorocebus sabaeus"}, "[15]": {"target": "Serine/threonine-protein phosphatase (Homo sapiens, UniProt Q9BPW0)", "sequence (Q9BPW0 whole entry)": "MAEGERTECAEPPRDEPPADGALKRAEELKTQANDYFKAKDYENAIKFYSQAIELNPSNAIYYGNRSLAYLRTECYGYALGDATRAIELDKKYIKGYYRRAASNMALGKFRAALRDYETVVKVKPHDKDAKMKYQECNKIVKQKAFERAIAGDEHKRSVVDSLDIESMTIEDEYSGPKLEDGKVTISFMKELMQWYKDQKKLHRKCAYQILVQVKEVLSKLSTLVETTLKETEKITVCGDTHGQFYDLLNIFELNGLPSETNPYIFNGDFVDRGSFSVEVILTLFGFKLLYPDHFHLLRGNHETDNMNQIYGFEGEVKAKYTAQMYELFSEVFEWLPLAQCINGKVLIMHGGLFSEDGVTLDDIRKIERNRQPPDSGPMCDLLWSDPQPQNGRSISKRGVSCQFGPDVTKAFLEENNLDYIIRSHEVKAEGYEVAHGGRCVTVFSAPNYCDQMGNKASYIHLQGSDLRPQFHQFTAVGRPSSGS", "test": "Counterscreen for inhibitors of PP1: fluorescence-based biochemical high throughput dose response assay to identify inhibitors of Protein Phosphatase 5 (PP5). [Related pubchem assays: 2034 (Summary (PP5 inhibitors)), 1987 (PP5 inhibitors in singlate), 2235 (PP1 inhibitors in singlate)]"}, "Streptokinase A": {"target": "T3, Streptokinase A (Streptococcus pyogenes serotype M1, UniProt P10520)", "T3 sequence (P10520 whole entry)": "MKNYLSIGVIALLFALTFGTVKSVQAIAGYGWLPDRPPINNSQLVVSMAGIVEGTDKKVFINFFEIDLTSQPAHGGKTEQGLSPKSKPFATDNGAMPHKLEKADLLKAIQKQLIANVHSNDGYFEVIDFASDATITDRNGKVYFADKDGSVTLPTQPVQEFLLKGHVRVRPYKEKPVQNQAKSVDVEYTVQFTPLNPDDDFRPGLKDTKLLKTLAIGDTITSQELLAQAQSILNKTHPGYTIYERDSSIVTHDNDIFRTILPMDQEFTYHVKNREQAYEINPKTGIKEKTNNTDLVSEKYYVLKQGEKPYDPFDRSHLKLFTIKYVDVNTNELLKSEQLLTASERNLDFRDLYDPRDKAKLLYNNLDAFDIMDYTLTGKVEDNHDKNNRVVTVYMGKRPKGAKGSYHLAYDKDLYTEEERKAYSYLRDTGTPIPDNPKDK", "test": "S. pyogenes streptokinase expression inhibitors, potency, dose response, plasminogen activation absorbance, OD405 (AID 1914);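 further: secreted streptokinase activity via plasminogen activation per viability signal from cell pellet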", "format": "functional, Streptococcus pyogenes M1 GAS"}, "[16]": {"system": "Streptococcus sp. 'group A'", "test": "growth inhibition of control SK(-) GAS strain, dose response, counter-screen for streptokinase expression inhibitor project, luminescence, kanamycin, BacTiterGlo, confirmation (AID 1900)", "format": "functional, organism-based"}, "[17]": {"target": "Disintegrin and metalloproteinase domain-containing protein 17 (Homo sapiens, UniProt P78536)", "sequence (P78536 whole entry, the tested form may be a part)": "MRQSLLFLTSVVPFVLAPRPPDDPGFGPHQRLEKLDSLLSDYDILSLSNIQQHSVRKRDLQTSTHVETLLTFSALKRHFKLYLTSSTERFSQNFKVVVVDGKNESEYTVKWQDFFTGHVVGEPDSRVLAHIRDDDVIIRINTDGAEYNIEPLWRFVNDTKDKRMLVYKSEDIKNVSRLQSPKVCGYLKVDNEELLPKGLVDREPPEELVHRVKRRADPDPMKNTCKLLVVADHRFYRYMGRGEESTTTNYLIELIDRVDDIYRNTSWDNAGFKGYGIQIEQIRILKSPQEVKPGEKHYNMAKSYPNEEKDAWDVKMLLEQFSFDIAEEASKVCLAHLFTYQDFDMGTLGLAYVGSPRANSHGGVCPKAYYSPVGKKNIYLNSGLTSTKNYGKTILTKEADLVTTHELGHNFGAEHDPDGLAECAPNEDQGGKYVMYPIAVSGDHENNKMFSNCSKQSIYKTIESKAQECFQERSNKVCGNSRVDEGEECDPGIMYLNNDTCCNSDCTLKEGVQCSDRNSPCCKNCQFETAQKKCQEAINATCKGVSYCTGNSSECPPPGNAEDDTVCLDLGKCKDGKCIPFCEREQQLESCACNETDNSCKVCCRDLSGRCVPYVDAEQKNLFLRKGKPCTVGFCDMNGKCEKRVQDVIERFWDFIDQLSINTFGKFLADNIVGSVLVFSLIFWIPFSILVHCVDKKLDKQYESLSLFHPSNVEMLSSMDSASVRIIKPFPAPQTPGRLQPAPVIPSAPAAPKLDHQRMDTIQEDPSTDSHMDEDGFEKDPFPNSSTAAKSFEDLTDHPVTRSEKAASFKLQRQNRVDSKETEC", "test": "exosite inhibitors of ADAM17, dose response, biochemical (AID 743260)"}, "Nonstructural protein 1": {"target": "Nonstructural protein 1 (Influenza A virus, UniProt Q194T2)", "sequence (Q194T2 whole entry)": "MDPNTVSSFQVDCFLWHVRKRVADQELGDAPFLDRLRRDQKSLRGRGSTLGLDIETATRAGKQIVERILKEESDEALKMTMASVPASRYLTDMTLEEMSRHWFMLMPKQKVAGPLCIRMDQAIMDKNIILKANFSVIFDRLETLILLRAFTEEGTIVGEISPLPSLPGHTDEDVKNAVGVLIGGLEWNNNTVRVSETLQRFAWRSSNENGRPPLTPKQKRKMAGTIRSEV", "format": "functional, Influenza A virus (A/California/07/2009(H1N1))"}, "[18]": {"target": "Serine/threonine-protein phosphatase PP1-alpha catalytic subunit (Homo sapiens, UniProt P62136)", "sequence (P62136 whole entry)": "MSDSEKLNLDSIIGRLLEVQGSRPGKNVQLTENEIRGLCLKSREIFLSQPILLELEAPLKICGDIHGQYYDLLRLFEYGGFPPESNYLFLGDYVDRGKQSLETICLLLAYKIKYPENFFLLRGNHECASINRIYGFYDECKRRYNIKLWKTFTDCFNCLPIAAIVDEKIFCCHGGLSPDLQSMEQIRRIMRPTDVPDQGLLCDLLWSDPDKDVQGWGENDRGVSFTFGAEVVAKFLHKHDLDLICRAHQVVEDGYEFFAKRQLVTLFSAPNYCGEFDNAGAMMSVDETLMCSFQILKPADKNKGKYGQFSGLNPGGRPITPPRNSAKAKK", "test": "PP1 phosphatase inhibitors, dose response, biochemical, fluorescence (AID 2403);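 further: phosphatase turnover of OMFP into fluorescent 3-O-methylfluorescein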"}, "[19]": {"target": "T4, Alkaline phosphatase, tissue-nonspecific isozyme (Homo sapiens, UniProt P05186)", "T4 sequence (P05186 whole entry)": "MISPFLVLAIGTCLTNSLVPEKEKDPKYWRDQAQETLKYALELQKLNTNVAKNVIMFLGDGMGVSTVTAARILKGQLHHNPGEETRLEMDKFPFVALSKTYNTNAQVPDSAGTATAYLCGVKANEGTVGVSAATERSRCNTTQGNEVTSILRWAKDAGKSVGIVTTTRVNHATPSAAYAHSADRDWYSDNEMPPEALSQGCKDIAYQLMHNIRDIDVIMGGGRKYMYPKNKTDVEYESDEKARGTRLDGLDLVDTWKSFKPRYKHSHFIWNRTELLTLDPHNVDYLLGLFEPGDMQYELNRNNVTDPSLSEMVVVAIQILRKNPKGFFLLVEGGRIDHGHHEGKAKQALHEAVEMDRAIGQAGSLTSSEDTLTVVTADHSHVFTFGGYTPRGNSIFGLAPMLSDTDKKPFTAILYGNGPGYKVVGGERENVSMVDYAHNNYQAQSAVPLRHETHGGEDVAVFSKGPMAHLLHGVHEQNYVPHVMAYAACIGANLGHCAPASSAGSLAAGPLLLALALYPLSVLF"}}, "note": "Activity calls are given as the source filed them.", "data": [{"smiles": "O=C(CCN(CCO)Cc1ccccc1)Nc1ccc(Br)cc1", "values": [{"measurement": "IC50", "setting": "[1]", "result": "17.6 µM (not active)"}, {"measurement": "IC50", "setting": "[2]", "result": "> 14.6 µM (not active)"}]}, {"smiles": "O=[N+]([O-])c1ccc(Cl)c(/C=C/c2cc(C(F)(F)F)nc(O)n2)c1", "values": [{"measurement": "IC50", "setting": "[3]", "result": "4.4 µM (active)"}, {"measurement": "IC50", "setting": "[4]", "result": "> 100 µM (not active)"}, {"measurement": "EC50", "setting": "[5]", "result": "> 20 µM (inactive)"}, {"measurement": "IC50", "setting": "HEK293 [6]", "result": "10.2 µM (active)"}, {"measurement": "IC50", "setting": "[7]", "result": "46.4 µM (active)"}, {"measurement": "IC50", "setting": "HEK293 [8]", "result": "11.8 µM (inactive)"}, {"measurement": "IC50", "setting": "Tumor necrosis factor", "result": "10.3 µM (active)"}, {"measurement": "IC50", "setting": "HEK293 [9]", "result": "> 20 µM (inactive)"}, {"measurement": "EC50", "setting": "HEK293 [10]", "result": "6.85 µM (active)"}, {"measurement": "EC50", "setting": "[11]", "result": "> 150 µM (inactive)"}, {"measurement": "IC50", "setting": "HEK293 [12]", "result": "> 20 µM (inactive)"}, {"measurement": "EC50", "setting": "[13]", "result": "1.8 µM (active)"}, {"measurement": "IC50", "setting": "HEK293 [14]", "result": "> 20 µM (inactive)"}]}, {"smiles": "Oc1c(C(c2ccccn2)N2CCCCC2)cc(Cl)c2cccnc12", "note": "(centres undefined)", "values": [{"measurement": "EC50", "setting": "Streptococcus", "result": "15.4 µM (active)"}, {"measurement": "CC50", "setting": "Vero", "result": "31.4 µM (active)"}, {"measurement": "IC50", "setting": "[15]", "result": "42.3 µM (not active)"}, {"measurement": "EC50", "setting": "Streptokinase A", "result": "> 150 µM (not active)"}, {"measurement": "EC50", "setting": "[16]", "result": "6.02 µM (active)"}, {"measurement": "IC50", "setting": "[17]", "result": "17 µM (inactive)"}, {"measurement": "IC50", "setting": "Nonstructural protein 1", "result": "8.02 µM (active)"}, {"measurement": "IC50", "setting": "[18]", "result": "2.48 µM (active)"}, {"measurement": "EC50", "setting": "[19]", "result": "81.1 µM (not active)"}]}]}
